# From article PMC9697349, “Mouse Pharmacokinetics and In Vitro Metabolism of SH-11037 and SH-11008, Synthetic Homoisoflavonoids for Retinal Neovascularization” (Pharmaceutics, 2022)
# Key:
# [1] = system: human microvascular retinal endothelial cell proliferation; set-up: method as in PMID 26035340; settings: less potent than SH-11037; cited from earlier work
# [2] = Mouse pharmacokinetics, single p.o. dose; format: in vivo; settings: mice
# Experimental: Pharmacokinetic studies were performed with male ICR mice (8 weeks old, 30~35 g) purchased from Koatech Co. (Kyunggi, Korea) as reported previously. Test compounds were dissolved at 1 mg/mL in DMA/Tween 80/20% aqueous HPβCD (10/10/80 vol%) to prepare the dosing solutions. SH-11037 was administered by oral (p.o.) gavage at a dose of 10 mg/kg and a dose volume of 10 mL/kg (equimolar to 6 mg/kg of SH-11008) or intravenously (i.v.) via tail vein injection at a dose of 5 mg/kg and a dose volume of 5 mL/kg (equimolar to 3 mg/kg of SH-11008), respectively. […] Plasma samples were analyzed as described below in Section 2.6.1.
# Calibration standards and quality control (QC) samples were prepared by spiking 15 μL of blank plasma with 5 μL of analyte working solution prepared in 50 vol% aqueous CH3CN. […] The lower limit of quantitation of SH-11037 and SH-11008 were 0.24 and 0.48 ng/mL, respectively, with a signal-to-noise ratio based on root mean square noise > 10. […] The precision and accuracy of the analytical method were evaluated with the QC samples prepared in triplicate at 5, 250, and 400 ng/mL for both of SH-11037 and SH-11008: the coefficient of variation (%CV) and the relative error (%RE) were in the ranges of −21.23~5.72% and 1.47~12.30% for SH-11037 and −22.85~4.96% and 1.2~13.8% for SH-11008, respectively. […]
# [3] = Stability of SH-11037 in mouse plasma; format: in vitro ADME; settings: ICR, pH 7.4, SH-11037 1 µM, 37 °C, read-out: half-life (t1/2) of hydrolysis to SH-11008
# Experimental: (§1) SH-11037 (1 μM) was incubated in triplicate in 0.1 M phosphate buffer (pH 7.4) or in mouse, dog, and human plasma to investigate its stability. SH-11037 (40 μM) in 50 vol% aqueous CH3CN was mixed with 0.1 M phosphate buffer (pH 7.4) or plasma diluted 3-fold with 0.1 M phosphate buffer (pH 7.4) to a final volume of 160 μL and a final concentration of 1 μM. The resulting solutions were then incubated at 37 °C in a shaking water bath. The incubations were terminated at selected times by adding 160 µL of ice-cold CH3CN containing glipizide (500 ng/mL) as the internal standard (IS). The resulting mixture was vortexed, sonicated, and centrifuged at 3000× g for 20 min. Aliquots of the supernatant were subjected to LC-MS/MS analysis described below in Section 2.6.2.
# (§2) The LC-MS/MS system consisted of Agilent 1290 Infinity HPLC system and Agilent 6530 Accurate-Mass Quadrupole Time-of-Flight (Q-TOF) mass spectrometer equipped with dual AJS ESI ion source (Agilent Technologies Korea, Seoul, Korea). Chromatographic separation was performed on an Agilent Eclipse Plus C18 column (2.1 × 100 mm, 3.5 μm) with a Phenomenex Security Guard C18 guard column (4 × 20 mm) maintained at 40 °C. The mobile phase consisted of 0.1% formic acid in deionized water (A) and 0.1% formic acid in CH3CN (B): 0~2 min 5% B, 2~7 min to 95% B, and 7~10 min 95% B. Total run time including a 5 min equilibration time was 15 min. […]
# [4] = Stability of SH-11037 in human plasma; format: in vitro ADME; settings: pH 7.4, SH-11037 1 µM, 37 °C, read-out: half-life (t1/2) of hydrolysis to SH-11008
# Experimental: as §1, §2
"plasma levels of SH-11008 ([2]; after single p.o. dose of SH-11008 6 mg/kg, BQL)",Compound,inhibitory activity on cell proliferation [1],half-life at 1 µM [3],half-life at 1 µM [4],plasma level of SH-11037 ([2]; throughout the time course after single p.o. dose of SH-11037 10 mg/kg)
< 0.48 ng/mL,COc1ccc(CC2COc3cc(OC)c(OC)c(OC)c3C2=O)cc1O (centres unmarked) [SH-11008],good inhibitory activity,–,–,–
–,COc1ccc(CC2COc3cc(OC)c(OC)c(OC)c3C2=O)cc1OC(=O)[C@H](Cc1ccccc1)NC(=O)OC(C)(C)C (some centres unmarked) [SH-11037],–,0.018 min,73.2 min,BQL
